Results: publication PMC8991199, “Promiscuity mapping of the S100 protein family using a high-throughput holdup assay” (Scientific Reports, 2022)

Columns and labels:
Format in all cases: binding
S100A1 = target: T1, S100A1 (Homo sapiens, UniProt P23297); assay: direct fluorescence polarization (FP), S100A1; settings: S100A1, 50 nM labeled foldamer, 20 mM HEPES pH 7.5, 150 mM NaCl, 1 mM CaCl2, 0.5 mM TCEP, 0.01% Tween20, quadratic fit, mean ± SEM, three technical repeats, threshold 1 mM
T1 sequence (P23297 1-94): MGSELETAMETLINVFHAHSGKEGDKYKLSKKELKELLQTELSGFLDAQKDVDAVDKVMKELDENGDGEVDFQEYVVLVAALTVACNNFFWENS
Excerpt: (§1) HTP (and also low-throughput) measurements generally need to be validated by an orthogonal approach to eliminate experimental artifacts. […] In this assay, the association of the fluorescently labeled foldamer and the S100 protein of interest is monitored, through the change in polarization of the emitted light by the fluorophore upon the binding event. In direct FP, the presence of the fluorophore might change the binding affinity of some foldamers. […] Nevertheless, we assumed that the fluorophore would affect all foldamers that target the same binding site to the same degree, because the foldamer scaffold is rigid.
(§2) Briefly, S100 proteins were cloned into a modified pET15b vector with a TEV protease cleavable N-terminal His6-tag and expressed in Escherichia coli BL21 (DE3) cells, followed by Ni^2+-affinity chromatography. For HU assay, S100 proteins were further purified by either hydrophobic interaction chromatography or ion exchange chromatography without the cleavage of the N-terminal His6-tag applying standard conditions. For direct FP measurements, the N-terminal His6-tag was cleaved, and the S100 proteins were purified by hydrophobic interaction chromatography, ion exchange chromatography or size exclusion chromatography. The quality of the recombinant proteins was checked by SDS-PAGE analysis in all cases. The concentration of the recombinant S100 proteins was determined by UV spectrophotometry using the absorbance of Tyr and Trp residues.
(§3) In direct fluorescence polarization assays, S100 proteins were diluted in a buffer containing 50 nM labeled foldamer, 20 mM HEPES pH 7.5, 150 mM NaCl, 1 mM CaCl2, 0.5 mM TCEP and 0.01% Tween20. The dilution series (50 µl) were divided into three technical repeats and transferred (15 µl) to a 384-well microplate. In competitive fluorescence polarization assays, the buffer applied in direct measurements was supplemented with the S100 protein of interest to reach a saturation of 60–80%. This mixture was titrated with the competitor (i.e. the unlabeled peptide). Fluorescence polarization was measured in 8 different S100 concentrations (one of which contained no S100 protein) on a Synergy H4 plate reader using 485 ± 20 nm and 528 ± 20 nm band-pass filters for excitation and emission, respectively. The Kd values were obtained by fitting the data from the FP measurements with the python-based ProFit software using quadratic and competitive binding equation for direct and competitive FP, respectively. The detection threshold was based on two parameters. First, we rejected all fitted dissociation constants above 1 mM.

S100A4 = S100A4 (Homo sapiens, UniProt P26447); assay: direct fluorescence polarization (FP), S100A4; settings: S100A4, 50 nM labeled foldamer, 20 mM HEPES pH 7.5, 150 mM NaCl, 1 mM CaCl2, 0.5 mM TCEP, 0.01% Tween20, quadratic fit, mean ± SEM, three technical repeats, threshold 1 mM
Excerpt: as §1, §2, §3

S100A9 = target: T2, S100A9 (Homo sapiens, UniProt P06702); assay: direct fluorescence polarization (FP), S100A9; settings: S100A9, 50 nM labeled foldamer, 20 mM HEPES pH 7.5, 150 mM NaCl, 1 mM CaCl2, 0.5 mM TCEP, 0.01% Tween20, quadratic fit, mean ± SEM, three technical repeats, threshold 1 mM
T2 sequence (P06702 1-114): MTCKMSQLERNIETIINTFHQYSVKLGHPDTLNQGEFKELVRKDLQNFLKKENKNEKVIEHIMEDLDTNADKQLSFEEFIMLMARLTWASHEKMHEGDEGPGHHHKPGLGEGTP
Method: (§4) HTP (and also low-throughput) measurements generally need to be validated by an orthogonal approach to eliminate experimental artifacts. […] This way, we chose WL, IF, WW, YF, IL, VL, TW, RF, RR, TI, TM, and after resynthesizing with a fluorescent label at the C-terminus (Figs. S15–S26, Table S1), the S100ome was tested against the labeled foldamers by direct fluorescence polarization (FP) (Fig. 3A). In this assay, the association of the fluorescently labeled foldamer and the S100 protein of interest is monitored, through the change in polarization of the emitted light by the fluorophore upon the binding event. In direct FP, the presence of the fluorophore might change the binding affinity of some foldamers. […] Nevertheless, we assumed that the fluorophore would affect all foldamers that target the same binding site to the same degree, because the foldamer scaffold is rigid. Defining the threshold of detection at the dissociation constant of 1 mM, we identified 87 interactions between the selected foldamer fragments and the S100ome out of 220 possible interactions (Table 1, Fig. S4-14).
as §2, §3

S100A13 = target: T3, S100A13 (Homo sapiens, UniProt Q99584); assay: direct fluorescence polarization (FP), S100A13; settings: for Kd: S100A13, 50 nM labeled foldamer, 20 mM HEPES pH 7.5, 150 mM NaCl, 1 mM CaCl2, 0.5 mM TCEP, 0.01% Tween20, quadratic fit, mean ± SEM, three technical repeats, threshold 1 mM
T3 sequence (Q99584 1-98): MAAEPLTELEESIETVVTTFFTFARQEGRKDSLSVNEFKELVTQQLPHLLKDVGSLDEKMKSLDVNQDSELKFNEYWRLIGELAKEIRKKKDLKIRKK
Method: as §4, §2, §3

S100A15 = target: T4, S100A15 (Homo sapiens, UniProt Q86SG5); assay: direct fluorescence polarization (FP), S100A15; settings: S100A15, 50 nM labeled foldamer, 20 mM HEPES pH 7.5, 150 mM NaCl, 1 mM CaCl2, 0.5 mM TCEP, 0.01% Tween20, quadratic fit, mean ± SEM, three technical repeats, threshold 1 mM
T4 sequence (Q86SG5 1-101): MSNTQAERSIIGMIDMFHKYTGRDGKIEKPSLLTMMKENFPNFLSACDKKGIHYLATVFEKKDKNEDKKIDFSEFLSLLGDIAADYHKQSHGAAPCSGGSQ
Method: as §4, §2, §3

S100B = target: T5, S100B (Homo sapiens, UniProt P04271); assay: direct fluorescence polarization (FP), S100B; settings: 50 nM labeled foldamer, 20 mM HEPES pH 7.5, 150 mM NaCl, 1 mM CaCl2, 0.5 mM TCEP, 0.01% Tween20, quadratic fit, mean ± SEM, three technical repeats, threshold 1 mM
T5 sequence (P04271 1-92): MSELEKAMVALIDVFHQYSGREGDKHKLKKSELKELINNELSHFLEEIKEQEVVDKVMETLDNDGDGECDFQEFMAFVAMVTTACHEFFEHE
Method: as §4, §2, §3

Chain of S100A4 (P26447 whole entry): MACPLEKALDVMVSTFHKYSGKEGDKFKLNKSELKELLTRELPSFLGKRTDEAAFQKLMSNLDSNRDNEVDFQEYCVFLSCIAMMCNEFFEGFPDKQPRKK

SMILES | Kd (S100A1) | Kd (S100A4) | Kd (S100A9) | Kd (S100A13) | Kd (S100A15) | Kd (S100B) | increase of the polarization upon adding S100A13 (S100A13; Fig. 3A right panel)
CC[C@H](C)[C@@H](CC(=O)N[C@H]1CCCC[C@@H]1C(=O)N[C@H]1CCCC[C@@H]1C(=O)N[C@H](CC(=O)N[C@H]1CCCC[C@@H]1C(=O)NCC(=O)N[C@@H](CCCCNC(=O)c1ccc2c(c1)C1(OC2=O)c2ccc(O)cc2Oc2cc(O)ccc21)C(N)=O)Cc1ccccc1)NC(=O)[C@H]1CCCC[C@@H]1N [fIF] | 210 ± 13 µM | 93 ± 2.4 µM | > 1000 µM | > 1000 µM | > 1000 µM | 140 ± 7.9 µM | –
CC[C@H](C)[C@@H](CC(=O)N[C@H]1CCCC[C@@H]1C(=O)N[C@H]1CCCC[C@@H]1C(=O)N[C@H](CC(=O)N[C@H]1CCCC[C@@H]1C(=O)NCC(=O)N[C@@H](CCCCNC(=O)c1ccc2c(c1)C1(OC2=O)c2ccc(O)cc2Oc2cc(O)ccc21)C(N)=O)CC(C)C)NC(=O)[C@H]1CCCC[C@@H]1N [fIL] | – | 150 ± 4.8 µM | > 1000 µM | > 1000 µM | > 1000 µM | 63 ± 4.4 µM | –
CC[C@H](C)[C@@H](CC(=O)N[C@H]1CCCC[C@@H]1C(=O)NCC(=O)N[C@@H](CCCCNC(=O)c1ccc2c(c1)C1(OC2=O)c2ccc(O)cc2Oc2cc(O)ccc21)C(N)=O)NC(=O)[C@H]1CCCC[C@@H]1NC(=O)[C@H]1CCCC[C@@H]1NC(=O)C[C@@H](NC(=O)[C@H]1CCCC[C@@H]1N)[C@@H](C)O [fTI] | > 1000 µM | > 1000 µM | > 1000 µM | > 1000 µM | > 1000 µM | > 1000 µM | –
CC(C)C[C@@H](CC(=O)N[C@H]1CCCC[C@@H]1C(=O)NCC(=O)N[C@@H](CCCCNC(=O)c1ccc2c(c1)C1(OC2=O)c2ccc(O)cc2Oc2cc(O)ccc21)C(N)=O)NC(=O)[C@H]1CCCC[C@@H]1NC(=O)[C@H]1CCCC[C@@H]1NC(=O)C[C@@H](NC(=O)[C@H]1CCCC[C@@H]1N)C(C)C [fVL] | 97 ± 12 µM | 210 ± 8.7 µM | > 1000 µM | > 1000 µM | > 1000 µM | 50 ± 6.4 µM | –
CC(C)C[C@@H](CC(=O)N[C@H]1CCCC[C@@H]1C(=O)NCC(=O)N[C@@H](CCCCNC(=O)c1ccc2c(c1)C1(OC2=O)c2ccc(O)cc2Oc2cc(O)ccc21)C(N)=O)NC(=O)[C@H]1CCCC[C@@H]1NC(=O)[C@H]1CCCC[C@@H]1NC(=O)C[C@H](Cc1c[nH]c2ccccc12)NC(=O)[C@H]1CCCC[C@@H]1N [fWL] | 53 ± 5.2 µM | 46 ± 1.6 µM | > 1000 µM | > 1000 µM | 39 ± 2.4 µM | 11 ± 0.81 µM | –
NC(=O)[C@H](CCCCNC(=O)c1ccc2c(c1)C1(OC2=O)c2ccc(O)cc2Oc2cc(O)ccc21)NC(=O)CNC(=O)[C@H]1CCCC[C@@H]1NC(=O)C[C@H](Cc1c[nH]c2ccccc12)NC(=O)[C@H]1CCCC[C@@H]1NC(=O)[C@H]1CCCC[C@@H]1NC(=O)C[C@H](Cc1c[nH]c2ccccc12)NC(=O)[C@H]1CCCC[C@@H]1N [fWW] | 110 ± 19 µM | – | > 1000 µM | > 1000 µM | > 1000 µM | > 1000 µM | –
NC(=O)[C@H](CCCCNC(=O)c1ccc2c(c1)C1(OC2=O)c2ccc(O)cc2Oc2cc(O)ccc21)NC(=O)CNC(=O)[C@H]1CCCC[C@@H]1NC(=O)C[C@H](Cc1ccccc1)NC(=O)[C@H]1CCCC[C@@H]1NC(=O)[C@H]1CCCC[C@@H]1NC(=O)C[C@H](Cc1ccc(O)cc1)NC(=O)[C@H]1CCCC[C@@H]1N [fYF] | 110 ± 9.8 µM | 113 ± 5.2 µM | > 1000 µM | > 1000 µM | > 1000 µM | 28 ± 1.7 µM | only a minor linear increase of the polarization

The next lines start with results.

Kd (S100A1) | Kd (S100A4) | Kd (S100A9) | Kd (S100A13) | Kd (S100A15) | Kd (S100B) | SMILES | increase of the polarization upon adding S100A13 (S100A13; Fig. 3A right panel)
413 ± 81 µM | 460 ± 23 µM | > 1000 µM | > 1000 µM | > 1000 µM | 230 ± 5.9 µM | N=C(N)NCCC[C@@H](CC(=O)N[C@H]1CCCC[C@@H]1C(=O)N[C@H]1CCCC[C@@H]1C(=O)N[C@H](CC(=O)N[C@H]1CCCC[C@@H]1C(=O)NCC(=O)N[C@@H](CCCCNC(=O)c1ccc2c(c1)C1(OC2=O)c2ccc(O)cc2Oc2cc(O)ccc21)C(N)=O)Cc1ccccc1)NC(=O)[C@H]1CCCC[C@@H]1N [fRF] | –
280 ± 38 µM | > 1000 µM | > 1000 µM | > 1000 µM | > 1000 µM | 210 ± 26 µM | N=C(N)NCCC[C@@H](CC(=O)N[C@H]1CCCC[C@@H]1C(=O)NCC(=O)N[C@@H](CCCCNC(=O)c1ccc2c(c1)C1(OC2=O)c2ccc(O)cc2Oc2cc(O)ccc21)C(N)=O)NC(=O)[C@H]1CCCC[C@@H]1NC(=O)[C@H]1CCCC[C@@H]1NC(=O)C[C@H](CCCNC(=N)N)NC(=O)[C@H]1CCCC[C@@H]1N [fRR] | –
> 1000 µM | > 1000 µM | > 1000 µM | > 1000 µM | > 1000 µM | > 1000 µM | CSCC[C@@H](CC(=O)N[C@H]1CCCC[C@@H]1C(=O)NCC(=O)N[C@@H](CCCCNC(=O)c1ccc2c(c1)C1(OC2=O)c2ccc(O)cc2Oc2cc(O)ccc21)C(N)=O)NC(=O)[C@H]1CCCC[C@@H]1NC(=O)[C@H]1CCCC[C@@H]1NC(=O)C[C@@H](NC(=O)[C@H]1CCCC[C@@H]1N)[C@@H](C)O [fTM] | –
330 ± 20 µM | 180 ± 46 µM | > 1000 µM | > 1000 µM | > 1000 µM | 280 ± 17 µM | C[C@@H](O)[C@@H](CC(=O)N[C@H]1CCCC[C@@H]1C(=O)N[C@H]1CCCC[C@@H]1C(=O)N[C@H](CC(=O)N[C@H]1CCCC[C@@H]1C(=O)NCC(=O)N[C@@H](CCCCNC(=O)c1ccc2c(c1)C1(OC2=O)c2ccc(O)cc2Oc2cc(O)ccc21)C(N)=O)Cc1c[nH]c2ccccc12)NC(=O)[C@H]1CCCC[C@@H]1N [fTW] | –
